Patent US9636324B2, “Use of 15-benzylidence-14-deoxy-11, 12 -dehyroandrographolide derivative in manufacture of medicaments for protecting liver and anti-hepatitis C virus” (Zhengzhou University, priority 2012, dated 2017)

Key:
[1] = test system: mice with ConA induced liver damage; assay: ConA induced immunological liver damage model in mice; assay type: in vivo, Kunming mice; conditions: for enzyme (ALT, AST) lowering effect compared to AD group: high dosage 0.88 mmol/kg vs AD 0.88 mmol/kg; for ability against liver lipid peroxidation compared with AD group: P<0.01 (B, C), P<0.05 (D); for protective effect against liver damage induced by ConA (summary): mice, intragastric, 3 days
Protocol: Kunming mice of clean grade (male, weight 20±2 g, supplied by the Laboratory Animal Center, Henan Province) are randomly divided into groups with 6 mice in each group. Bifendate (Xinchang Pharmaceutical Factory of Zhejiang Pharmaceutical Co., Ltd, 200 mg/kg) is used as positive control, andrographolide (AD) is provided by Furen Pharmaceutical Group Co., Ltd, and the test compounds are synthesized by the inventors with purities higher than 99.0%. Normal control group and model group are intragastrically given 0.5% sodium carboxymethylcellulose (CMC-Na), and test groups are given 0.5% CMC-Na suspensions with AD (0.88 mmol/kg), and low dosage (0.66 mmol/kg) and high dosage (0.88 mmol/kg) of compound A, B and C, respectively. The drugs are given for 3 days. One hour after the last administration, all mice except those in the normal control group are injected with a single dose of ConA (20 mg/kg) through the caudal vein. After 8 h, the eyeball is enucleated to collect blood, which is centrifuged at 3000 rpm for 15 min to separate serum. ALT and AST are tested according to the kit specification, respectively (Nanjing Jiancheng Bioengineering Institute). The left lobe of liver is taken to prepare 10% homogenate using physiological saline, MDA is determined according to the kit specification (Nanjing Jiancheng Bioengineering Institute). To 50 μL liver homogenate is added 2 mL of 0.5 mol/L KOH-methanol solution and kept at 50° C. water bath to isomerize for 20 minutes, then absorbance (A value) is measured at 278 nm, using the A value per mL of homogenate to represent the PGE2 content. Experimental data are expressed as average±standard deviation (X±s), analyzed with SPSS 11.5 statistic software, with P<0.05 meaning significant difference.
Kunming mice of clean grade (male, weight 20±2 g) are randomly divided into normal group, model group, bifendate (Zhejiang Wanbang Pharmaceutical Co., Ltd) positive control group (200 mg/kg), AD group (0.88 mmol/kg), low dosage group (0.66 mmol/kg) and high dosage (0.88 mmol/kg) group of compound D. ALT, AST, and MDA assay kits are purchased from Nanjing Jiancheng Bioengineering Institute. Other agents, drugs and experimental methods are the same as in EXAMPLE 1.
In experimental investigation of both models, the following grouping method is used: Kunming mice of clean grade (male, weight 20±2 g) are randomly divided into normal group, model group, bifendate group (200 mg/kg), AD group (0.88 mmol/kg), low dosage group (0.66 mmol/kg) and high dosage group (0.88 mmol/kg) of compound E, with 8 mice in each group. Other agents, drugs and experimental methods are the same as in EXAMPLE 1 and in EXAMPLE 4, respectively.

[2] = test system: mice with carbon tetrachloride induced liver damage; assay: Carbon tetrachloride induced chemical liver damage model in mice; assay type: in vivo, Kunming mice; conditions: for ALT activity in serum vs model group / AST activity in serum vs model group: dosage groups not distinguished (0.66 and 0.88 mmol/kg); for ALT activity in serum vs model group / AST activity in serum vs model group / MDA level in liver homogenate vs model group / PGE2 level in liver homogenate vs model group: P<0.01; for MDA level in liver homogenate vs model group / PGE2 level in liver homogenate vs model group: dosage groups not distinguished; for magnitude of decrease in ALT activity compared to AD group / magnitude of decrease in AST activity compared to AD group / PGE2 content compared to AD group / ability to reduce lipid peroxide level in liver homogenate compared to AD group: P<0.05; for protective effect against liver damage induced by carbon tetrachloride (summary): mice, intragastric, 3 days
Protocol: Kunming mice of clean grade (male, weight 20±2 g), after adaptively fed for 3 days, are randomly divided into normal group, model group, bifendate positive control group (200 mg/kg), AD group (0.88 mmol/kg), low dosage group (0.66 mmol/kg) and high dosage group (0.88 mmol/kg) of compound A, B, C and D, with 8 mice in each group. Positive group and each test group are intragastrically given with respective suspension prepared with 0.5% CMC-Na, and normal group and model group are given with 0.5% CMC-Na. The drugs are given for 3 days, and 1 h after the last administration, all mice except those in the normal group are intraperitoneally injected with a single dose of 0.3% carbon tetrachloride in peanut oil (0.1 mL/10 g). After 16 h, the eyeball of the mice in each group is enucleated to collect blood, which is centrifuged at 3000 rpm for 15 min to separate serum. ALT and AST activities are tested respectively (Nanjing Jiancheng Bioengineering Institute). The left lobe of liver is taken to prepare 10% homogenate using physiological saline, MDA (Nanjing Jiancheng Bioengineering Institute) and PGE2 contents are determined. Experimental data are expressed as average±standard deviation (X±s), analyzed with SPSS 11.5 statistic software, with P<0.05 meaning there is a significant difference. Other agents, drugs and experimental methods are the same as in EXAMPLE 1. In experimental investigation of both models, the following grouping method is used: Kunming mice of clean grade (male, weight 20±2 g) are randomly divided into normal group, model group, bifendate group (200 mg/kg), AD group (0.88 mmol/kg), low dosage group (0.66 mmol/kg) and high dosage group (0.88 mmol/kg) of compound E, with 8 mice in each group. Other agents, drugs and experimental methods are the same as in EXAMPLE 1 and in EXAMPLE 4, respectively.

[3] = test system: bovine viral diarrhea virus (BVDV-AV69); assay: CPE observation of effects on cytopathy caused by BVDV in MDBK cells; conditions: MDBK cells, BVDV-AV69; TC50 from MTT, IC50 from CPE
Protocol: Pharmaceutical effects of drugs of the invention against cytopathy caused by inoculation of BVDV virus are investigated using MDBK (NBL-1) cells (purchased from Chinese Academy of Science's Shanghai Center for Type Culture Collection) and bovine viral diarrhea virus (BVDV-AV69) (purchased from China Institute of Veterinary Drugs Control). Ribavirin (R; Henan RunHong Pharmaceutical Co., Ltd; batch number: E0909604) is used as positive drug control. MDBK cells are prepared as a suspension (1×10^5/mL) in RPMI1640 culture medium which contains 10% in volume fetal bovine serum (Zhejiang Tianhang Biotechnology Co., Ltd; batch number: 100524), 100 μg/mL streptomycin (Shenzheng Huayao Nanfang Pharmaceutical Co., Ltd; batch number: N09081), 100 U/mL penicillin (North China Pharmaceutical Co., Ltd; batch number: E0909604), and are seeded in 96 well plates (Costar, US) at 200 μL/well, placed in an incubator (Binder, Germany) at 37° C. with 5% CO2 to culture the cell. In 24 h when cells grow into a single layer, virus solution of 100 TCID50 (TCID50=10^−2.5) is added and incubated for 1.5 h. Maintenance medium with the drug is added at 200 μL/well after 3×PBS washes.
After digestion of MDBK cells with trypsin, cells with a concentration of 1×10^5/mL are seeded into 96 well plates at 200 μL/well, placed in an incubator at 37° C. with 5% CO2 for 24 h. After growing into a single layer, cells are attacked using 100 TCID50 (TCID50=10^−2.5) virus and incubated for 1.5 h. The virus-containing maintenance medium is discarded, and cells are washed with PBS, followed by addition of drug-containing maintenance medium with different concentrations, and incubation in 5% CO2 at 37° C. Normal cell control, virus control, drug treatment and ribavirin treatment groups are set. The cytopathy developing status is recorded everyday by observing under an inverted microscope.

[4] = test system: mice with ethanol induced liver damage; assay: Ethanol induced liver damage model in mice; assay type: in vivo, Kunming mice
Protocol: Kunming mice of clean grade (male, weight 20±2 g), after adaptively fed for 3 days, are randomly divided into normal group, model group, bifendate positive control group (200 mg/kg), AD group (0.88 mmol/kg), low (0.44 mmol/kg), median (0.66 mmol/kg) and high (0.88 mmol/kg) dosage groups of compound A, and median (0.66 mmol/kg) and high (0.88 mmol/kg) dosage groups of compound B, with 8 mice in each group. Positive group and each test group are intragastrically given with respective suspension prepared with 0.5% CMC-Na, and normal group and model group are given with 0.5% CMC-Na. The drugs are given for 3 days, and 1 h after the last administration, all mice except those in the normal group are intragastrically administrated with a single dose of 50% EtOH ([…]). After 16 h, the eyeball of the mice in each group is enucleated to collect blood, which is centrifuged at 3000 rpm for 15 min to separate serum. ALT and AST activities are tested respectively (Nanjing Jiancheng Bioengineering Institute). The left lobe of liver is taken to prepare 10% homogenate using physiological saline, MDA (Nanjing Jiancheng Bioengineering Institute) content is determined. Experimental data are expressed as average±standard deviation (X±s), analyzed with SPSS 11.5 statistic software, with P<0.05 meaning there is a significant difference. Other agents, drugs and experimental methods are the same as in EXAMPLE 1.

[5] = high dosage 0.88 mmol/kg, P<0.01
[6] = high dosage 0.88 mmol/kg vs AD 0.88 mmol/kg
[7] = low dosage 0.66 mmol/kg vs AD 0.88 mmol/kg
[8] = dosage groups not distinguished, P<0.01

SMILES	enzyme (ALT, AST) lowering effect compared to AD group ([1]; P<0.05)	MDA content in liver homogenate vs model group [1, 5]	PGE2 content in liver homogenate vs model group [1, 5]	ability against liver lipid peroxidation compared with AD group ([1]; high dosage 0.88 mmol/kg)	protective effect against liver damage induced by ConA (summary) [1]	ALT activity in serum vs model group [2]	AST activity in serum vs model group [2]	MDA level in liver homogenate vs model group [2]	PGE2 level in liver homogenate vs model group [2]	magnitude of decrease in ALT activity compared to AD group [2, 6]	magnitude of decrease in AST activity compared to AD group [2, 6]	magnitude of decrease in ALT activity compared to AD group [2, 7]	magnitude of decrease in AST activity compared to AD group [2, 7]	protective effect against liver damage induced by carbon tetrachloride (summary) [2]	TI value (therapy index, TC50/IC50) [3]	also measured
C=C1CCC2C(C)(CO)C(O)CCC2(C)C1C=CC1=CC(=Cc2cccc(Br)c2)OC1=O (stereo not shown) [C]	better enzyme lowering effect	more obvious effect	notably reduce PGE2 content	stronger resistant ability against liver lipid peroxidation	notably protective effect	notably suppress the increase	notably suppress the increase	effectively reduce	effectively reduce	significantly better	significantly better	significantly better	significantly better	protective effect		PGE2 content compared to AD group ([2]; high dosage 0.88 mmol/kg): notably lower; ability to reduce lipid peroxide level in liver homogenate compared to AD group ([2]; high dosage 0.88 mmol/kg): stronger ability to reduce the lipid peroxide level
NC(=O)c1ncn([C@@H]2O[C@H](CO)[C@@H](O)[C@H]2O)n1 [Ribavirin(R), Ribavirin, reference compound]															4	
C=C1CC[C@@H]2[C@](C)(CO)[C@H](O)CC[C@@]2(C)[C@@H]1C/C=C1/C(=O)OC[C@H]1O [AD, andrographolide]					Obvious Protective Effect									Obvious Protective Effect	14.4	MDA content in liver homogenate vs model group ([1]; AD 0.88 mmol/kg, compounds at different dosages, P<0.05): can reduce the MDA content; liver histopathologic section (HE staining) ([1]; HE stain, 200x, FIG. 5): liver cells are slightly swelled and loosed, a portion of liver cells show spotted necrosis and degeneration, no focal necrosis involving massive liver cells is observed
C=C1CCC2C(C)(CO)C(O)CCC2(C)C1C=CC1=CC(=Cc2ccccc2)OC1=O (stereo not shown) [B]	better enzyme lowering effect	more obvious effect	notably reduce PGE2 content	stronger resistant ability against liver lipid peroxidation	notably protective effect	notably suppress the increase	notably suppress the increase	effectively reduce	effectively reduce	significantly better	significantly better	significantly better	significantly better	protective effect		PGE2 content compared to AD group ([2]; low dosage 0.66 mmol/kg): notably lower; ability to reduce lipid peroxide level in liver homogenate compared to AD group ([2]; low dosage 0.66 mmol/kg): stronger ability to reduce the lipid peroxide level; ALT activity in serum vs model group [4, 8]: effectively suppress; AST activity in serum vs model group [4, 8]: effectively suppress; MDA content in liver homogenate vs model group [4, 8]: effectively reduce the MDA content; ALT activity decreasing magnitude compared with AD group ([4]; high dosage 0.88 mmol/kg, P<0.01 (A), P<0.05 (B)): notably larger; protective effect against liver damage induced by ethanol (summary) ([4]; mice, intragastric, 3 days): protective effect
